Experimental data: patent publication US20150240295A1, “REACTIVE, LIPOPHILIC NUCLEOSIDE BUILDING BLOCKS FOR THE SYNTHESIS OF HYDROPHOBIC NUCLEIC ACIDS” (IONOVATION GMBH, priority 2012, published 2015)

Assays:
various cancer cells = experiment: Oncological tests, summary of FIGS. 10 to 17; assay type: cell-based; conditions: ovarian, colon and kidney cancer cells
Description: (§1) FIGS. 10 to 17 show the activity of compounds ESP—2.2, ESP—2.5 and ESP—31 according to the invention as well as the comparative examples ESP—2 and ESP—3 (Table 4) in relation to the concentration employed against various different cancer cells. […] The x-axis depicts the molar concentration of the respective compound on a logarithmical scale.

OVCAR-5 = experiment: Oncological test, cell growth against OVCAR-5; assay type: cell-based, human; conditions: FIGS. 10 and 11
Description: as §1

HCT-15 cells = experiment: Oncological test, cell growth against HCT-15; assay type: cell-based, human; conditions: for cell growth (inhibition / cytotoxic effect): FIGS. 14 and 15
Description: as §1

IGR-OV1 = experiment: Oncological test, cell growth against IGR-OV1; assay type: cell-based, human; conditions: FIGS. 12 and 13
Description: as §1

786-0 cells = experiment: Oncological test, cell growth against 786-0; assay type: cell-based; conditions: FIGS. 16 and 17
Description: as §1

Row | melting point | Structure (SMILES) | cell growth (inhibition / cytotoxic effect) (OVCAR-5) | cell growth (inhibition / cytotoxic effect) (HCT-15 cells) | cell growth (inhibition / cytotoxic effect) (IGR-OV1) | cell growth (inhibition / cytotoxic effect) (786-0 cells) | also measured
1 | – | CCOC(=O)CC[C@]1(C)OC2[C@@H](CO)O[C@@H](n3ncc(=O)n(C/C=C(\C)CCC=C(C)CCC=C(C)C)c3=O)[C@H]2O1 (stereo partly drawn) [ESP—2.5] | high cytotoxicity | increased activity | improved inhibition effect | high cytotoxic effect | activity / cytotoxicity against various cancer cells (various cancer cells): particular high cytotoxicity; death of the cells (HCT-15 cells; high dosage): over 50%
2 | 90.1 °C | CCCCCCCCCCCCCC1(CCCCCCCCCCCCC)O[C@@H]2[C@H](O1)[C@@H](CO)O[C@H]2n1ccc(=O)[nH]c1=O [Compound 25c, 1-((3aR,4R,6R,6aR)-6-(hydroxymethyl)-2,2-ditridecyltetrahydrofuro[3,4-d][1,3]dioxol-4-yl)pyrimidin-2,4(1H,3H)-dione] | – | – | – | – | –
3 | 93 °C | CCCCCCCCCCCCCCCC1(CCCCCCCCCCCCCCC)OC2C(CO)OC(n3ccc(=O)[nH]c3=O)C2O1 (stereo not drawn) [Compound 25d, 1-(6-Hydroxymethyl-2,2-dipentadecyl-tetrahydro-furo[3,4-d][1,3]dioxol-4-yl)-1H-pyrimidin-2,4-dione] | – | – | – | – | –
4 | – | O=c1cnn([C@@H]2O[C@H](CO)[C@@H](O)[C@H]2O)c(=O)[nH]1 [ESP—2, 6-azauridine, reference compound] | no activity | slight inhibition of the growth of the cells | slight inhibition | – | –
5 | 74 °C | COc1ccc(C(OC[C@H]2O[C@@H](n3cnc4c(=O)n(C/C=C(\C)CCC=C(C)C)cnc43)C[C@@H]2O)(c2ccccc2)c2ccc(OC)cc2)cc1 [Compound 4a, 9-((2R,4S,5R)-5-((Bis(4-methoxyphenyl)(phenyl)methoxy)-methyl)-4-hydroxytetrahydrofuran-2-yl)-1-((E)-3,7-di-methylocta-2,6-dienyl)-1H-purin-6(9H)-one] | – | – | – | – | –
6 | – | CCCCCCCCCC1(CCCCCCCCC)OC2[C@@H](CO)O[C@@H](n3ccc(=O)[nH]c3=O)[C@H]2O1 (stereo partly drawn) [ESP—31] | cytotoxicity | high cytotoxic activity | vast improvement with respect to the cytotoxic activity | cytotoxic effect | –
7 | 89.7 °C | CCCCCCCCCCCCCCCCCC1(CCCCCCCCCCCCCCCCC)OC2C(CO)OC(n3ccc(=O)[nH]c3=O)C2O1 (stereo not drawn) [Compound 25e, 1-(2,2-Diheptadecyl-6-hydroxymethyl-tetrahydro-furo[3,4-d][1,3]dioxol-4-yl)-1H-pyrimidin-2,4-dione] | – | – | – | – | –
8 | – | O=c1ccn([C@@H]2O[C@H](CO)[C@@H](O)[C@H]2O)c(=O)[nH]1 [ESP—3, uridine, reference compound] | no activity | – | did not even cause a growth inhibition | did not show any activity at all | –
9 | 68 °C | COc1ccc(C(OC[C@H]2O[C@@H](n3cnc4c(=O)n(C/C=C(\C)CC/C=C(\C)CCC=C(C)C)cnc43)C[C@@H]2O)(c2ccccc2)c2ccc(OC)cc2)cc1 [Compound 4b, 9-((2R,4S,5R)-5-((Bis(4-methoxyphenyl)(phenyl)methoxy)-methyl)-4-hydroxytetrahydrofuran-2-yl)-1-((2E,6E)-3,7,11-trimethyldodeca-2,6,10-trienyl)-1H-purin-6(9H)-on] | – | – | – | – | –
10 | – | CCOC(=O)CC[C@@]1(C)OC2C(O1)[C@@H](COC(c1ccccc1)(c1ccccc1)c1ccc(OC)cc1)O[C@H]2n1ncc(=O)[nH]c1=O (stereo partly drawn) [ESP—2.2] | inhibition of cell growth | increased activity | activity of the compound could be increased | – | –
